In brackets after ≈: the same amount, converted by molar mass.
Tests used:
[1] = test system: colon cancer (Caco2); test: MTT cytotoxicity assay, colon cancer (Caco2); format: cell-based
Source text: (§1) The cell lines laboratory at Vacsera, Dokkey, Giza, Egypt provided colon cancer (Caco2), cervical cancer (HeLa), prostate cancer (PC3), breast cancer (MCF7), hepatocellular carcinoma (HepG2) and normal human fetal lung fibroblast (WI38). The sterility of the process was maintained using a laminar airflow cabinet. The Roswell Park Memorial Institute medium (RPMI 1640) was used to sustain the cell culture. […] The 10% heat-inactivated fetal bovine serum was used to supplement the medium. The 3-(4,5-dimethylthiazol-2-yl)-2,5-diphenyl-2H-tetrazolium bromide (MTT) assay was employed to measure cytotoxicity. A purple formazan was created from the yellow MTT via a mitochondrial reduction. For inoculation, a 96-well microplate was filled with 1 × 10^5 cells per well in 100 μL of Roswell Park Memorial Institute medium (RPMI 1640). Conditions of 5% CO2, 37 °C and 95% humidity were used to incubate the microplate for 24 h to produce a completely formed monolayer sheet. After the cells formed a confluent layer, the growth media was decanted from 96-well microplates. […] Confluent cell monolayers were injected with 0.1 mL of the extract at each concentration using a multichannel pipette, and then they were dispersed throughout the 96 wells. The cells that were treated with the extracts were incubated at 37 °C and 5% CO2 for 24 h. […] The optical density at 560 nm was determined using a microplate reader. […]

[2] = test system: cervical cancer (HeLa); test: MTT cytotoxicity assay, cervical cancer (HeLa); format: cell-based
Source text: as §1

[3] = test system: prostate cancer (PC3); test: MTT cytotoxicity assay, prostate cancer (PC3); format: cell-based
Source text: as §1

[4] = test system: breast cancer (MCF7); test: MTT cytotoxicity assay, breast cancer (MCF7); format: cell-based
Source text: as §1

[5] = test system: hepatocellular carcinoma (HepG2); test: MTT cytotoxicity assay, hepatocellular carcinoma (HepG2); format: cell-based
Source text: as §1

[6] = test system: normal human fetal lung fibroblast (WI38); test: MTT cytotoxicity assay, normal fibroblast (WI38); format: cell-based; conditions: WI-38, mean ± standard deviation
Source text: as §1

[7] = test system: tumor microtubule proteins of cancer cells; design: method as in doi:10.1016/j.molstruc.2022.132636, PMID 22721782; conditions: cited from earlier work

COc1cccc2c1C(=O)c1c(O)c3c(c(O)c1C2=O)C[C@@](O)(C(=O)CO)C[C@@H]3O[C@H]1C[C@H](N)[C@H](O)[C@H](C)O1 [Doxorubicin, doxorubicin]
IC50 ([1]; Homo sapiens, Caco-2, MTT assay, colon cancer (Caco2), mean ± standard deviation): 70.1 ± 1 µg/mL (≈ 129 µM) | SI: selectivity index ([1]; IC50 of non-cancer cell line (WI38) / IC50 of Caco2): 0.7 | IC50 ([2]; Homo sapiens, MTT assay, cervical cancer (HeLa), mean ± standard deviation): 40 ± 2 µg/mL (≈ 73.6 µM) | SI: selectivity index ([2]; IC50 of non-cancer cell line (WI38) / IC50 of HeLa): 1.2 | SI: selectivity index ([3]; IC50 of non-cancer cell line (WI38) / IC50 of PC3): 1.3 | IC50 ([3]; MTT assay, prostate cancer (PC3), mean ± standard deviation): 38 ± 2 µg/mL (≈ 69.9 µM) | IC50 ([4]; Homo sapiens, MTT assay, breast cancer (MCF7), mean ± standard deviation): 36 ± 6 µg/mL (≈ 66.2 µM) | SI: selectivity index ([4]; IC50 of non-cancer cell line (WI38) / IC50 of MCF7): 1.4 | IC50 ([5]; Homo sapiens, MTT assay, hepatocellular carcinoma (HepG2), mean ± standard deviation): 44 ± 3 µg/mL (≈ 81 µM) | SI: selectivity index ([5]; IC50 of non-cancer cell line (WI38) / IC50 of HepG2): 1.1 | IC50 [6]: 51 ± 4 µg/mL (≈ 93.8 µM)

Calystegine B
antitumor effect on assembly of tumor microtubule proteins [7]: preventing the assembly of tumor microtubule proteins
